Two molecules from publication PMC3336786 (The FASEB Journal, 2012) can be followed below.

Usually pIC50 stands for the negative decadic logarithm of the IC50, by convention in mol/L. A lower pIC50 goes with a large IC50.

Substitutions are numbered along the chain they refer to. pIC50: −log10 of the molar value.

The target in one assay is T1, RDLT6'V (Drosophila melanogaster, UniProt P25123, T305V).
T1 sequence (P25123 45-606 T305V): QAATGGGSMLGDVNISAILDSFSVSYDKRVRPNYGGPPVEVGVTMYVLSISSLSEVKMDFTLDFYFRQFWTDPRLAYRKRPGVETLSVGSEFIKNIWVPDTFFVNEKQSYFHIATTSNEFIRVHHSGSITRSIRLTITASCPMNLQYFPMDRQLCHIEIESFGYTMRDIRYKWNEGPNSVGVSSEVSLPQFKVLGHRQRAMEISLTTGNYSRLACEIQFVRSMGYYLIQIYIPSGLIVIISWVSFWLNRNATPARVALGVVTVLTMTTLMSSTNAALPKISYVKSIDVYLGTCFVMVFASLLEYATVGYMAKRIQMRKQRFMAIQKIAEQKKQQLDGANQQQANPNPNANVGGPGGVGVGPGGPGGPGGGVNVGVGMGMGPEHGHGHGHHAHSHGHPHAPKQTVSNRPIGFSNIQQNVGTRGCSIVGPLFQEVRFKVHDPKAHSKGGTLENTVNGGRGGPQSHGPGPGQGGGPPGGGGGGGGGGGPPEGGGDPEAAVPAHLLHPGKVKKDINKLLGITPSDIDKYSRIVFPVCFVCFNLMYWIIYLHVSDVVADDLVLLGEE
The assay is described as follows: Two-electrode voltage clamp of RDLT6'V mutant receptors in Xenopus oocytes. Format: cell-based.

A further assay concerns the target T2, RDLA2'V (Drosophila melanogaster, UniProt P25123, A301V).
T2 sequence (P25123 45-606 A301V): T1 sequence (P25123 45-606 T305V) with A257V, V261T
The assay is described as follows: cell-based. In kind it is cell-based.

Turning to `CC(C)(C)[C@]1(O)CC2OC(=O)CC23C(=O)OC2OC(=O)[C@H](O)C231` (stereo partly shown) [BB, bilobalide], the pIC50 is less than 3.00 on RDLT6'V and 3.65 at RDLA2'V.
Turning to `C[C@@H]1C(=O)O[C@H]2C[C@@]34[C@H]5C[C@@H](C(C)(C)C)[C@]36[C@@H](OC(=O)[C@@H]6O)O[C@@]4(C(=O)O5)[C@]21O` [GA, ginkgolide A], the results for the pIC50 against RDLT6'V and against RDLA2'V were less than 3.00 and 3.44, respectively.
